# Experimental data: US20230028293A1, “MULTIPLE MYELOMA COMBINATION THERAPIES BASED ON PROTEIN TRANSLATION INHIBITORS AND IMMUNOMODULATORS” (The Regents of the University of Colorado, a body corporate, priority 2019, published 2023)
# What was measured:
# Assay type in all cases: cell-based
# MM cell lines = test: Two-drug combination matrix in MM cell lines, ZIP synergy; settings: for ZIP δ-score for synergy with omacetaxine: BET inhibitor with omacetaxine; for synergy of translation inhibitor with pomalidomide: MM.1S and H929 cells
# [1] = tested on: protein translation in MM cell lines and primary MM cells; test: OP-Puro protein translation assay in vitro; settings: omacetaxine 50 nM 2.5 h, bortezomib 6 h, 24 h, 48 h
# Method: To examine whether myeloma cells depend on inherently high protein synthesis, the O-Propargyl-puromycin (OP-Puro) assay was used to measure the rate of amino-acid incorporation into translating ribosomes by flow cytometry.
# Protein synthesis levels were determined in vitro utilizing the puromycin analog O-propargyl-puromycin (OP-Puro) in the protein synthesis assay kit (Cayman Chemical) according to manufacturer instructions. For in vivo protein synthesis, engrafted NSG mice were injected IP with 500 μg puromycin (Gibco), then euthanized after 1.5 h, marrow was flushed, and cells stained with anti-puromycin antibody (12D10, Alexa-488, Millipore Sigma), followed by flow cytometry.
# MM1.S cells = test: Timecourse of apoptosis and cell death by Annexin V and DAPI flow cytometry
# From the text: FIG. 2A depicts the timecourse of induction of apoptosis and cell death by omacetaxine in MM1.S cells as measured by Annexin V and DAPI staining by flow cytometry.
# FIG. 10A depicts the timecourse of induction of apoptosis and cell death by pomalidomide in MM1.S cells as measured by annexin V and DAPI staining by flow cytometry.
smiles,measurement,setting,value
CCS(=O)(=O)Nc1ccc(Oc2ccc(F)cc2F)c(-c2cn(C)c(=O)c3[nH]ccc23)c1 [ABBV-075],ZIP δ-score for synergy with pomalidomide,"MM cell lines; ABBV-075 with pomalidomide, MM.1S cell line",6.597
same,ZIP δ-score for synergy with omacetaxine,MM cell lines; MM.1S cell line,12.02
Cc1sc2c(c1C)C(c1ccc(Cl)cc1)=N[C@@H](CC(=O)OC(C)(C)C)c1nnc(C)n1-2 [JQ1],ZIP δ-score for synergy with omacetaxine,MM cell lines; MM.1S cell line,17.56
same,ZIP δ-score for synergy with pomalidomide,"MM cell lines; JQ1 100 nM with pomalidomide 1.25 μM, U266, 96 h",21.18
CC(C)C[C@H](NC(=O)[C@H](Cc1ccccc1)NC(=O)c1cnccn1)B(O)O [bortezomib],ability to inhibit translation in myeloma cell lines,[1],did not occur
same,ability to inhibit translation in myeloma cell lines,[1]; listed as Boitezomib,did not change translation levels
C/C(=C\[C@H](C)C(=O)C[C@H](O)CC1CC(=O)NC(=O)C1)[C@@H]1OC(=O)/C=C/CC/C=C/C=C\[C@@H]1C [lactimidomycin],synergy of translation inhibitor with pomalidomide,MM cell lines,synergistic
COc1ccc(C[C@H]2NC[C@H](O)[C@H]2OC(C)=O)cc1 [anisomycin],synergy of translation inhibitor with pomalidomide,MM cell lines,synergistic
Nc1cccc2c1C(=O)N(C1CCC(=O)NC1=O)C2=O (stereo not shown) [pomalidomide],time at which cell death began,MM1.S cells,24 h
same,time at which induction of apoptosis started,MM1.S cells,24 h
C[C@@H]1C[C@@H]([C@H](O)CC2CC(=O)NC(=O)C2)C(=O)[C@@H](C)C1 [cycloheximide],synergy of translation inhibitor with pomalidomide,MM cell lines,synergistic
Cc1sc2c(c1C)C(c1ccc(Cl)cc1)=N[C@@H](CC(=O)Nc1ccc(O)cc1)c1nnc(C)n1-2 [OTX015],ZIP δ-score for synergy with omacetaxine,MM cell lines; MM.1S cell line,7.64
same,ZIP δ-score for synergy with pomalidomide,"MM cell lines; OTX015 with pomalidomide, MM cell lines",1.84
